Data published in patent publication US20060270705A1, “Method for inhibiting lipid absorption and lipid absorption inhibitor” (Japan Tobacco Inc., priority 2005, published 2006).

Legend:
[1] = test system: lipid absorption in the small intestine; assay: Inhibitory effect on lipid absorption in the small intestine: plasma triglyceride after oral olive oil loading in hamsters; format: in vivo, normal syrian hamsters; details: control group = 100%; for TG Concentration (%): Test 1, olive oil 2 mL/kg 30 min later, plasma 4 hours after olive oil, male 13-week old hamsters; for TG Concentration (4 hours) / TG Concentration (%) (8 hours): Test 2, 30 mg/kg oral, male 12-week old hamsters; for TG Concentration (4 hours): plasma 4 hours after oil loading; for TG Concentration (%) (8 hours): plasma 8 hours after oil loading
Description: Test of Inhibitory Effect on Lipid Absorption in the Small Intestine by Various CETP Inhibitors in Hamsters
(§1) Three kinds of CETP inhibitors (compound A: 40 mg/kg, compound B: 3 mg/kg, compound C: 3 mg/kg) suspended in 0.5% aqueous methylcellulose were orally administered to normal syrian hamsters (male, 13-week old). Only 0.5% aqueous methylcellulose was administered to the control group. After 30 minutes, olive oil at a dose of 2 mL/kg was orally loaded. Blood was collected from ophthalmic venous plexus 4 hours after the administration of olive oil, and plasma triglyceride (TG) concentration and CETP inhibitory activity were measured. Plasma triglyceride (TG) concentration was measured by enzymatic method. For CETP activity, the amount of [^3H]CE transferred from donor lipoprotein ([^3H]CE-HDL3) to acceptor lipoprotein (hamster apoB-containing lipoprotein) was used as index.
(§2) Using a test system similar to Test 1, the effects of compound B (30 mg/kg) and compound C (30 mg/kg) in normal syrian hamsters (male, 12-week old) were examined. Blood collection was carried out at 4 and 8 hours after oil loading, and plasma triglyceride (TG) concentration and CETP inhibitory activity were measured.

CETP = CETP activity in hamster plasma after oral dosing: [3H]CE transfer from donor [3H]CE-HDL3 to hamster apoB-containing lipoprotein; format: in vivo, normal syrian hamsters; details: proportion relative to control group = 100%; for CETP Inhibitory Activity (%): Test 1, plasma 4 hours after olive oil; for CETP Inhibitory Activity (%) (8 hours): Test 2, 30 mg/kg oral, plasma 8 hours after oil loading
Description: Potassium bromide (KBr) was added to plasma (40 mL) of a healthy subject, adjusted to have a specific density d=1.125 g/mL, and subjected to fractional ultracentrifugation (288,000×g, 4° C., 18 to 20 hr), and a fraction showing a specific density of d>1.125 g/mL (HDL3 fraction) was harvested. The obtained fraction was dialyzed against PBS solution [10 mmol/L Na2HPO4; 10 mmol/L NaH2PO4; 0.15 mol/L NaCl; 1 mmol/L EDTA (pH 7.4)]. Then, tritium-labeled cholesterol (37 MBq) was dissolved in 95% ethanol, gradually added to the above-mentioned HDL3 fraction with stirring and incubated at 37° C. for 18 to 24 hr. [By this operation, tritium-labeled cholesterol was esterified by the action of lecithin cholesterol acyl transferase (LCAT) present on the HDL3 surface and taken up into HDL3 as tritium-labeled cholesteryl ester ([^3H]CE)]. After incubation, KBr was added, the specific density was adjusted to d=1.21 g/mL, and subjected to fractional ultracentrifugation (285,000×g, 4° C., 70 to 90 hr), and a fraction of specific density […] was harvested. The obtained fraction was dialyzed against the aforementioned PBS solution to give HDL3 incorporating [^3H]CE ([^3H]CE-HDL3, specific density: 1.125<d<1.21, specific activity: 22,000-33,000 dpm/μL) as a donor lipoprotein.
as §1, §2

[2] = 3 mg/kg oral in 0.5% methylcellulose

CCC(CC)CC1(C(=O)Nc2ccccc2SC(=O)C(C)C)CCCCC1 [Compound A, S-{2-([[1-(2-ethylbutyl)cyclohexyl]carbonyl]amino)phenyl}2-methylpropanethioate]
TG Concentration (%) ([1]; 40 mg/kg oral in 0.5% methylcellulose): 87%
CETP Inhibitory Activity (%) (CETP; 40 mg/kg oral): 83%

CCN(C[C@H]1CC[C@H](CC(=O)O)CC1)c1cc(C)c(C(F)(F)F)cc1CN(Cc1cc(C(F)(F)F)cc(C(F)(F)F)c1)c1nnn(C)n1.CS(=O)(=O)O [Compound B, trans-(4-{[N-(2-{[N′-[3,5-bis(trifluoromethyl)benzyl]-N′-(2-methyl-2H-tetrazol-5-yl)amino]methyl}-5-methyl-4-trifluoromethylphenyl)-N-ethylamino]methyl}cyclohexyl)acetic acid methanesulfonate]
TG Concentration (%) [1, 2]: 69%
TG Concentration (4 hours) [1]: 66%
TG Concentration (%) (8 hours) [1]: 56%
CETP Inhibitory Activity (%) (CETP; 3 mg/kg oral): 29%
CETP Inhibitory Activity (%) (8 hours) (CETP): 29%

CCOC(=O)N1c2ccc(C(F)(F)F)cc2[C@@H](N(Cc2cc(C(F)(F)F)cc(C(F)(F)F)c2)C(=O)OC)C[C@H]1CC [Compound C]
TG Concentration (%) [1, 2]: 69%
TG Concentration (4 hours) [1]: 85%
TG Concentration (%) (8 hours) [1]: 71%
CETP Inhibitory Activity (%) (CETP; 3 mg/kg oral): 20%
CETP Inhibitory Activity (%) (8 hours) (CETP): 37%
